# In US8791110B2 (priority 2006, dated 2014):
# Read-outs that look alike come from different tables or passages of the source. Numbered stars: 1 amine (or outer) side, 2 acyl side, 3 side chain; on linkers, the order of the positions; unused ones are H or OH. Bridge positions count the residues as written; N and C are the ends. Square brackets hold non-standard residues; d marks the D form. Peptide text beside a SMILES is read from it. I, II: the chains in the order shown. Actinocin(9to1) = Cc1c2oc3c(C)ccc(C(=O)[*:1])c3nc-2c(C(=O)[*:2])c(N)c1=O; NMeV = CN[C@H](C(=O)O)C(C)C; Sar = CNCC(=O)O
# Tests used:
# [1] = system: Tacaribe (TRVL 11573) virus; experiment: microbe, parasite or virus in culture; type: cell-based; conditions: Mammarenavirus tacaribeense, Vero
# Candid 1 = experiment: organism not typed; type: cell-based, Junín virus; conditions: read-out: EC50 Candid 1
# in vitro = conditions: African green monkey
# Machupo virus = experiment: microbe, parasite or virus in culture; type: cell-based; conditions: Mammarenavirus machupoense, Vero, 120 h, read-out: EC50 Category A NWA, Machupo
# Guanarito virus = experiment: microbe, parasite or virus in culture; type: cell-based; conditions: Mammarenavirus guanaritoense, Vero, 120 h, read-out: EC50 Category A NWA, Guanarito
# Arenavirus = conditions: cited from earlier work
# [2] = in vivo; cited from earlier work
# [3] = in vivo; cited from earlier work; remark: listed apart in the source
smiles,measurement,setting,value
CN1CCN(C(=O)Nc2ccc(Cl)c(Cl)c2)CC1 [Compound 20013],EC50,"[1]; 168 h, read-out: EC50 Tacaribe",> 50000 nM
same,EC50,Candid 1,> 50000 nM
same,CC50,Vero cells; African green monkey,> 50000 nM
same,CC50,in vitro,> 50000 nM
"CN1CCN(C(=S)Nc2ccc(Cl)c(Cl)c2)CC1 [Compound 313761, 4-methyl-piperazine-1-carbothioic acid (3,4-dichlorophenyl)-amide]",EC50,"[1]; 168 h, read-out: EC50 Tacaribe",140 nM
same,EC50,[1]; read-out: EC50 value in the CPE assay,140 nM
same,EC50,Candid 1,260 nM
same,EC50,Machupo virus,300 nM
same,EC50,Guanarito virus,150 nM
same,toxicity / effect on cell growth at antiviral concentrations,Vero cells,active at non-toxic concentrations
same,CC50,in vitro,50000 nM
"Cc1c2oc3c(C)ccc(C(=O)N[C@@H]4C(=O)N[C@H](C(C)C)C(=O)N5CCC[C@H]5C(=O)N(C)CC(=O)N(C)[C@@H](C(C)C)C(=O)O[C@@H]4C)c3nc-2c(C(=O)N[C@@H]2C(=O)N[C@H](C(C)C)C(=O)N3CCC[C@H]3C(=O)N(C)CC(=O)N(C)[C@@H](C(C)C)C(=O)O[C@@H]2C)c(N)c1=O [actinomycin D] (I: T[dV]P[Sar][NMeV] / II: T[dV]P[Sar][NMeV]; ester I:1-I:C, II:1-II:C; linker I:N-II:N via Actinocin(9to1))",anti-Arenavirus activity,Arenavirus,generally weak and non-specific
NC12CC3CC(CC(C3)C1)C2 [amantadine],anti-Arenavirus activity,Arenavirus,generally weak and non-specific
CN(C)CCCN1c2ccccc2Sc2ccc(Cl)cc21 [chlorpromazine],anti-Arenavirus activity,Arenavirus,generally weak and non-specific
"NC(=O)c1ncn([C@@H]2O[C@H](CO)[C@@H](O)[C@H]2O)n1 [ribavirin, Ribavirin]",adverse effects,[2],"dose-related, reversible hemolytic anemia"
same,reproductive toxicity,[3],teratogenicity and embryo lethality
CN1CCN(CCCN2c3ccccc3Sc3ccc(C(F)(F)F)cc32)CC1 [trifluoroperazine],anti-Arenavirus activity,Arenavirus,generally weak and non-specific
